Data as given in PMC8199755, “In Vitro and In Vivo Trypanocidal Efficacy of Synthesized Nitrofurantoin Analogs” (Molecules, 2021).
Where two headings read alike, the source gives them in different places.

Columns and labels:
[1] = Cytotoxicity (Cell Counting Kit-8, 3 days); type: cell-based, bovine; conditions: bovine, 37 °C, mean ± SD of triplicate
Protocol: Additionally, Madin–Darby bovine kidney cells were cultivated (density, 1 × 10^4 cells/mL) in a 96-well cell culture plate (Thermo Fisher Scientific) with the analogs, at seven different concentrations for 3 days at 37 °C. Next, 10 µl of the Cell Counting Kit-8 solution (Dojindo, Kumamoto, Japan) was added into each well […] 4 h of incubation. Absorbance was measured at 450 nm using a GloMax®-Multi+Detection System plate reader.
(§1) The half maximum inhibitory concentration (IC50) of each analog in trypanosomes and the Madin–Darby bovine kidney cells was calculated using the GraphPad Prism version 8 software (GraphPad, Inc., San Diego, CA, USA).

[2] = test system: T. congolense IL3000; experiment: In vitro trypanocidal activity (CellTiter-Glo, 3 days); type: cell-based; conditions: bloodstream forms, 33 °C, mean ± SD of triplicate, read-out: Trypanocidal Activity IC50 ± SD, Tc IL3000
Protocol: (§2) The bloodstream forms of T. b. brucei GUTat3.1, T. b. rhodesiense IL1501, T. b. rhodesiense Chirundu, T. b. gambiense IL1922, and T. evansi Tansui strains were propagated in culture at 37 °C, whereas the T. congolense IL3000 strain was propagated at 33 °C in Hirumi’s modified Iscove’s medium-9, supplemented with 20% heat-inactivated fetal bovine serum. The bloodstream form cultures were maintained by replacing the entire culture supernatant with fresh medium, every other day.
(§3) The trypanocidal activity and cytotoxicity of nitrofurantoin analogs were evaluated according to previous reports, with some modifications. In brief, bloodstream forms adjusted at 2.5 × 10^3 cells/mL (T. b. brucei GUTat3.1, T. b. gambiense IL1922, and T. b. rhodesiense IL1501), 1 × 10^4 cells/mL (T. evansi Tansui and T. b. rhodesiense Chirundu), and 1 × 10^5 cells/mL (T. congolense IL3000), were cultivated in Nunc® MicroWell 96-well optical bottom plates (Thermo Fisher Scientific, Waltham, MA, USA) and exposed to various analogs at seven different concentrations for 3 days, in an incubator at 37 °C (33 °C for T. congolense IL3000). […] Twenty-five microliters of the Cell-TiterGlo® (Promega, Madison, WI, USA) reagent was added into each well, and bioluminescence was measured using a GloMax®-Multi+Detection System plate reader (Promega).
as §1

[3] = test system: T. b. brucei GUTat3.1; experiment: as above; type: cell-based; conditions: Trypanosoma brucei, 72 h, bloodstream forms, 37 °C, mean ± SD of triplicate, read-out: Trypanocidal Activity IC50 ± SD, Tbb GUTat3.1
Protocol: as §2, §3, §1

[4] = test system: T. evansi Tansui; experiment: as above; type: cell-based; conditions: 72 h, bloodstream forms, 37 °C, mean ± SD of triplicate, read-out: Trypanocidal Activity IC50 ± SD, Tev Tansui
Protocol: as §2, §3, §1

[5] = test system: T. b. rhodesiense IL1501; experiment: as above; type: cell-based; conditions: Trypanosoma brucei, 72 h, bloodstream forms, 37 °C, mean ± SD of triplicate, read-out: Trypanocidal Activity IC50 ± SD, Tbr IL1501
Protocol: as §2, §3, §1

[6] = test system: T. b. gambiense IL1922; experiment: as above; type: cell-based; conditions: Trypanosoma brucei, 72 h, bloodstream forms, 37 °C, mean ± SD of triplicate, read-out: Trypanocidal Activity IC50 ± SD, Tbg IL1922
Protocol: as §2, §3, §1

[7] = test system: T. b. rhodesiense Chirundu; experiment: as above; type: cell-based; conditions: Trypanosoma brucei, 72 h, bloodstream forms, 37 °C, mean ± SD of triplicate, read-out: Trypanocidal Activity IC50 ± SD, Tbr Chirundu
Protocol: as §2, §3, §1

[8] = Madin–Darby bovine kidney (MDBK) cells

Row | SMILES | IC50 at 3 days [1, 8] | IC50 ([2]; Trypanosoma congolense, 72 h) | IC50 [2] | IC50 [3] | IC50 [4] | IC50 [5] | IC50 [6] | IC50 [7] | IC50 at 3 days ([1]; MDBK cells)
1 | CN1C(=O)CN(/N=C/c2ccc([N+](=O)[O-])o2)C1=O [Analog 1, (E)-3-Methyl-1-([(5-nitrofuran-2-yl)methylene]amino)imidazolidine-2,4-dione] | 65200 ± 12800 nM | 190 to 730 nM | 190 ± 76 nM | 3610 ± 400 nM | 1610 ± 98 nM | 7020 ± 94 nM | 3600 ± 260 nM |  | 
2 | CCN1C(=O)CN(/N=C/c2ccc([N+](=O)[O-])o2)C1=O [Analog 2, (E)-3-Ethyl-1-([(5-nitrofuran-2-yl)methylene]amino)imidazolidine-2,4-dione] | 44800 ± 1690 nM |  |  | 10800 ± 4840 nM | 5390 ± 530 nM | 11400 ± 5240 nM | 11300 ± 4800 nM |  | 
3 | CCCN1C(=O)CN(/N=C/c2ccc([N+](=O)[O-])o2)C1=O [Analog 3, (E)-1-([(5-Nitrofuran-2-yl)methylene]amino)-3-propylimidazolidine-2,4-dione] | 39300 ± 1090 nM | 330 ± 180 nM |  | 14100 ± 340 nM | 6530 ± 610 nM | 14000 ± 1420 nM | 14700 ± 1320 nM | 810 ± 240 nM | 
4 | CCCCN1C(=O)CN(/N=C/c2ccc([N+](=O)[O-])o2)C1=O [Analog 4, (E)-3-Butyl-1-([(5-nitrofuran-2-yl)methylene]amino)imidazolidine-2,4-dione] | 35800 ± 3490 nM | 310 ± 200 nM |  | 33300 ± 24300 nM | 7890 ± 530 nM | 32700 ± 820 nM | 17200 ± 2230 nM | 1380 ± 340 nM | 
5 | CCCCCN1C(=O)CN(/N=C/c2ccc([N+](=O)[O-])o2)C1=O [Analog 5, (E)-1-([(5-Nitrofuran-2-yl)methylene]amino)-3-pentylimidazolidine-2,4-dione] | 39100 ± 5860 nM | 350 ± 150 nM |  | 4240 ± 1990 nM | 5440 ± 170 nM | 5690 ± 1660 nM | 3420 ± 1470 nM |  | 
6 | CCCCCCN1C(=O)CN(/N=C/c2ccc([N+](=O)[O-])o2)C1=O [Analog 6, (E)-3-Hexyl-1-([(5-nitrofuran-2-yl)methylene]amino)imidazolidine-2,4-dione] | 25200 ± 3520 nM | 80 ± 47 nM |  | 5760 ± 4010 nM | 3760 ± 470 nM | 2610 ± 120 nM | 2590 ± 280 nM | 170 ± 110 nM | 
7 | CCCCCCCN1C(=O)CN(/N=C/c2ccc([N+](=O)[O-])o2)C1=O [Analog 7, (E)-3-Heptyl-1-([(5-nitrofuran-2-yl)methylene]amino)imidazolidine-2,4-dione] | 92300 ± 6520 nM | 40 ± 11 nM |  | 2060 ± 750 nM | 1020 ± 100 nM | 1450 ± 860 nM | 1990 ± 750 nM | 56 ± 26 nM | 
8 | CCCCCCCCCCN1C(=O)CN(/N=C/c2ccc([N+](=O)[O-])o2)C1=O [Analog 10, (E)-3-Decyl-1-([(5-nitrofuran-2-yl)methylene]amino)imidazolidine-2,4-dione] | 110000 ± 14400 nM | 11 ± 4.4 nM |  | 650 ± 560 nM | 280 ± 25 nM | 610 ± 60 nM | 620 ± 700 nM | 17 ± 4.4 nM | 
9 | O=C1CN(/N=C/c2ccc([N+](=O)[O-])o2)C(=O)N1CCCc1ccccc1 [Analog 13, (E)-1-([(5-Nitrofuran-2-yl)methylene]amino)-3-(3-phenylpropyl)imidazolidine-2,4-dione] | > 281000 nM | 140 ± 30 nM |  | 7290 ± 3160 nM | 3110 ± 370 nM | 5900 ± 3750 nM | 4830 ± 3220 nM | 140 ± 67 nM | 
10 | O=C1CN(/N=C/c2ccc([N+](=O)[O-])o2)C(=O)N1Cc1ccccc1 [Analog 14, (E)-3-Benzyl-1-([(5-nitrofuran-2-yl)methylene]amino)imidazolidine-2,4-dione] | > 305000 nM | 180 ± 17 nM |  | 2880 ± 260 nM | 1260 ± 100 nM | 2830 ± 610 nM | 2340 ± 640 nM | 270 ± 120 nM | 
11 | Cc1ccc(CN2C(=O)CN(/N=C/c3ccc([N+](=O)[O-])o3)C2=O)cc1 [Analog 15, (E)-3-(p-Methylbenzyl)-1-([(5-nitrofuran-2-yl)methylene]amino)imidazolidine-2,4-dione] | 34300 ± 11500 nM | 130 ± 44 nM |  | 8240 ± 3110 nM | 4230 ± 400 nM | 6100 ± 47 nM | 2890 ± 510 nM | 150 ± 68 nM | 
12 | O=C1CN(/N=C/c2ccc([N+](=O)[O-])o2)C(=O)N1Cc1ccc(C(F)(F)F)cc1 [Analog 16, (E)-1-([(5-Nitrofuran-2-yl)methylene]amino)-3-(p-(trifluoromethyl)benzyl) imidazolidine-2,4-dione] | 56600 ± 40800 nM | 20 nM |  | 520 ± 81 nM | 440 ± 46 nM | 960 ± 8.7 nM | 610 ± 260 nM | 20 ± 12 nM | 
13 | O=C1CN(/N=C/c2ccc([N+](=O)[O-])o2)C(=O)N1Cc1ccc([N+](=O)[O-])cc1 [Analog 17, (E)-3-(p-Nitrobenzyl)-1-([(5-nitrofuran-2-yl)methylene]amino)imidazolidine-2,4-dione] |  | 40 ± 17 nM |  | 1070 ± 740 nM | 610 ± 50 nM | 500 ± 12 nM | 1050 ± 700 nM | 40 ± 94 nM | 20100 ± 1020 nM
14 | NCCCC(N)(C(=O)O)C(F)F (stereo not shown) [Eflornithine, reference compound] |  | 16100 ± 2930 nM |  | 38600 ± 9880 nM | 57200 ± 17600 nM | 46000 ± 17100 nM | 36700 ± 12900 nM | 35600 ± 10200 nM | 
15 | CC1CS(=O)(=O)CCN1/N=C/c1ccc([N+](=O)[O-])o1 (stereo not shown) [Nifurtimox, reference compound] |  | 1060 ± 220 nM |  | 4660 nM | 2620 ± 1400 nM | 4350 ± 1590 nM | 4580 ± 2380 nM | 1460 ± 350 nM | 
16 | N=C(N)c1ccc(OCCCCCOc2ccc(C(=N)N)cc2)cc1 [Pentamidine, reference compound] |  | 330 ± 54 nM |  | 41 ± 2.3 nM | 0.97 ± 0.19 nM | 29 ± 6.2 nM | 14 ± 3.1 nM | 50 ± 12 nM | 
17 | Cc1ccc(C(=O)Nc2ccc(S(=O)(=O)O)c3cc(S(=O)(=O)O)cc(S(=O)(=O)O)c23)cc1NC(=O)c1cccc(NC(=O)Nc2cccc(C(=O)Nc3cc(C(=O)Nc4ccc(S(=O)(=O)O)c5cc(S(=O)(=O)O)cc(S(=O)(=O)O)c45)ccc3C)c2)c1 [Suramin, reference compound] |  | 7170 ± 870 nM |  | 66 ± 5.2 nM | 380 ± 58 nM | 76 ± 11 nM | 64 ± 1.8 nM | 66 ± 71 nM | 
